These results are taken from patent publication EP4178959B1, “NITROGEN HETEROCYCLIC CYTOKININ DERIVATIVES, COMPOSITIONS CONTAINING THESE DERIVATIVES AND USE THEREOF” (Univerzita Palackého v Olomouci, priority 2020, dated 2022).

Data set [1] in a line: Calcein AM cytotoxicity assay, B10A.4 cells. The conditions noted are these: mouse, Cytotoxicity IC50, B10A.4, first column headed B10A.4. In a few lines: (§1)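 Compound concentrations tested in duplicate on normal cell lines using Calcein AM viability read-out; cytotoxicity expressed as IC50 (µmol/L).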
Data set [2] is described as follows: Calcein AM cytotoxicity assay, BJ cells. The conditions noted are these: human. In a few lines: as §1
Data set [3] is described as follows: Calcein AM cytotoxicity assay, NIH3T3 cells. Conditions: mouse. In a few lines:
as §1

Data set [4] relates to Arabidopsis thaliana. Put plainly: Arabidopsis root growth inhibition test. Format: in vivo, Arabidopsis thaliana (ecotype Columbia). Conditions: for Primary root length 7-d, WT = 100%: 7-d-old plants. On the procedure:
Arabidopsis thaliana seeds (ecotype Columbia) were sterilized with 70% ethanol and 0.1% Triton X-100 and then washed 4 times with sterile water. The seeds were transferred to Petri dishes on a solid medium consisting of MS (2.2 g l^-1), sucrose (10 g l^-1), agar (8 g l^-1), and supplemented with cytokinins or DMSO control (0.1% DMSO). After incubation for 3 days in darkness at 4°C, the seeds were germinated and grown horizontally in an environmental chamber at 22/20 °C under an 8 h light (120 µmol photons m^-2 s^-1)/16 h dark cycle for 4 days. 7-d-old seedling were used for measurements of the primary root length. At least 35 plants were used for each treatment and each treatment was repeated in at least 5 individual Petri dishes. The length of the primary root was evaluated using Scion Image software (Scion Corporation, Frederick, MD, USA). All measured parameters were statistically evaluated between untreated and treated plants according to Student's unpaired t-test. […] Tab. Inhibition of the primary root growth in 7-d-old Arabidopsis plants. 100% = WT plants, DMSO treated.

Data set [5] relates to Arabidopsis thaliana. The data set can be described thus: Effect on the root proliferation of Arabidopsis thaliana. Format: in vivo, Arabidopsis thaliana (ecotype Columbia). The procedure: Arabidopsis thaliana seeds (ecotype Columbia) were sterilized with 70% ethanol and 0.1% Triton X-100 and then washed with 70% ethanol containing 0.01% Triton X-100. Then the seeds were transferred to vertical square petri dishes (11 seeds per dish) on a solid medium consisting of MS (2.15 g/l), MES (0.5 g/l), sucrose (1 g/l), agar (11 g/l), buffered to pH 5.8, and various concentrations of tested compounds. The compounds were dissolved in DMSO, thus 0.05% DMSO was used as a control solution. After incubation for 3 days in darkness at 4°C, the seeds were germinated and grown in an environmental chamber (fluorescence light intensity 150 µE m^-2 s^-1, humidity 55%, 16 h day/8 h night, 22°C). […] The number of lateral roots was scored under a stereomicroscope. […] In addition, compounds with tetrahydropyranyl protection at N9 slightly increase the number of emerged lateral roots (Fig 3C). […] Table 6: […]

The subject of data set [6] is Zea mays seedlings. The data set can be described thus: Effect on development of Zea mays seedlings (hydroponic). The data set is classed as in vivo, Zea mays cv. CELLUX. On the procedure:
Maize seeds (Zea mays cv. CELLUX) were imbibed in tap water and germinated on a wetted filter paper. After 3 days, the germinated seedlings were transferred to aerated hydroponic tanks filled with Hoagland's nutrient solution. The plants were grown in an environmental chamber with 16 h light period (250 μE m^-2 s^-1) at 27°C and 8 h dark period at 20°C. Tested compounds diluted in DMSO were added to nutrient solution immediately when seedlings were nested in the tanks or after two additional days of cultivation. Control plants were grown in parallel with addition of corresponding amount of DMSO (up to 0.01%). Root and leaf tissues of ten plants were harvested at different time points after the application of the compounds, immediately frozen in liquid nitrogen and used for cytokinin content and transcript level analysis. Length of primary root and the first leaf were determined with ruler on sets of twelve plants, each cultivated in the independent tank (for every cytokinin application repeated ten times). Dry mass of root system and the aerial part was determined after cutting off the kernel and desiccation in dryer for two days at 60°C. […] Fig. 4) and up to 1 micromolar concentration when more seedlings were in the solution (approx. 50 seedlings per 1 liter; Fig. 5). […] Table 7: […]

Data set [7] has as its system excised wheat leaf tips. Put plainly: Senescence inhibition on winter wheat leaf segments (chlorophyll retention). Further details: species or system Triticum aestivum cv. Hereward. Conditions: Triticum aestivum, foliar; retention of chlorophyll in excised wheat leaf tips, 96 h in the dark, at concentration with highest activity; read-out: Activity (%) [10^-4mol.l^-1 KTHP = 100%]. In a few lines:
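First-leaf tips (~35 mm; five tips, 100 mg) were cut from 7-day wheat seedlings (cv. Hereward; 25 °C, 16/8 h light). Their basal ends stood in compound solutions made from DMSO stock brought to 10^-3 M with water.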

Data set [8] has as its system sweet peppers, cucumbers and tomatoes. The data set can be described thus: Field trials with vegetables, overall. Conditions: 10 - 100 nM. Format: in vivo. On the procedure: Besides, plants were treated with a commercial fertilizer (type Kristalon) with optimal ratio of N,P,K and micronutrients. Dosage of 2-fluoro-6-[(3-methoxylbenzyl)amino]-9-(tetrahydro-2H-pyran-2-yl)-9H-purine was in the range between 10 - 100 nM, but usually 50 or 100 nM from re-planting to the end of vegetation once a week 500 ml to each plant (Table 10). The application of the compound was performed 1-3 times per week (according to the cultivation system - field or hydroponic). Stock solution was prepared in the concentration range 1-5 µM, then dosing into hydroponic system, watering with fertilizer, or in concentration […] in final fertilizer for use in soil conditions. Number of replicates was 10 / 12 plants from each variant (including control).
In case of cucumbers, fruit weight harvested per plant varied from 99,6 / 110,0 %, number of fruits were 102,3 / 106,8 % compared to control. Fruit weight from 1 plant varied from 100,0 to 124,7 % and number of fruits varied from 92,9 to 143,2 %, compared to control, after application of the tested compound to sweet peppers. In most trials, the size of fruits increased after the application of the tested compound.

[9] abbreviates: at concentration with highest activity.

A value given as a limit tells only on which side of the number the result lay.

For orientation: IC50 means the concentration that inhibits the measured activity by half.

Regarding `COc1cccc(CNc2nc(F)nc3c2ncn3C2CCCCO2)c1` (stereo not shown) [Compound 67, 2-Fluoro-6-[(3-methoxybenzyl)amino]-9-(tetrahydro-2H-pyran-2-yl)-9H-purine], the IC50 at 72 h in data set [1], in data set [2] and in data set [3] was > 167 µM each time. For the same compound, the “root growth inhibition (in words)” value in data set [4] (compared to WT, 7-d-old seedlings) is “did not cause significant root inhibition”. The entries for the “Primary root length 7-d, WT = 100%” value in data set [4] (tested concentration 0.04 µmol.l^-1), in data set [4] (tested concentration 1 µmol.l^-1) and in data set [4] (tested concentration 25 µmol.l^-1) were 96.9 (±2.4) %, 50.3 (±1.1) % and 34.9 (±2.1) %, respectively. For the same compound, in data set [5] (MS media, range of concentration 0.04 to 5 µM), the “effect on elongation of primary root (in words)” value is on record as “does not have negative effect on elongation of primary root”. The “Concentration with highest activity” value in data set [5] (number of lateral roots) is recorded as 10^-5 mol.l^-1; in data set [6] (root dry mass) it was 10^-7 mol.1^-1; in data set [6] (shoot dry mass), 10^-6 mol.1^-1. Besides, the “Root dry mass (%) [4 x 10^-8 mol.l^-1 Kin = 100%]” value in data set [6] (setting [9]) is on record as 261.2 (± 20) %. In addition, the “Shoot dry mass (%) [10^-6 mol.l^-1 Kin = 100%]” value in data set [6] (setting [9]) was 127.6 (± 9) %. Also, the “effect on cell division and organ growth (in words)” value in data set [6] (root system and aerial part of seedlings) is listed as “Positive effect”. The Emax in data set [7] worked out at 195%. Besides, in data set [8], the “effect on fertility term elongation of vegetables, number of fruits, protection against abiotic stress (in words)” value is recorded as “positive effect”.
